Measured values published in the supplement of paper PMC10307832.

Experiments:
Test in all cases: relative viability (nuclei count vs DMSO), 5 days (fraction); higher = more cells survive
[1] = compound: O=C(/C=C/c1ccccc1)NC(NC(=S)Nc1cccc2cccnc12)C(Cl)(Cl)Cl [Salubrinal] + Cc1nc(NC(=O)N2CCC[C@H]2C(N)=O)sc1-c1ccnc(C(C)(C)C(F)(F)F)c1 [Alpelisib] (partner 2 µM)
Summary of the method: (§1)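 Each reported value is a median over duplicate plates. It expresses relative viability: treated-well nuclei count divided by vehicle-well nuclei count. Lung cancer cell lines in 1536-well plates were dosed by pin tool a day after seeding, alone with one drug or with a fixed anchor-drug dose plus five library-drug doses (not always all listed) in √10 steps, and nuclei were counted after 5 days.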

[2] = compound: Cc1ccc2nc(NCCN)c3ncc(C)n3c2c1 + O=C(CCCCCCC(=O)Nc1ccccc1)NO [Vorinostat] (partner 1 µM)
Summary of the method: as §1

[3] = compound: Cc1ccc2nc(NCCN)c3ncc(C)n3c2c1 + Nc1ncn([C@H]2C[C@H](O)[C@@H](CO)O2)c(=O)n1 [Decitabine] (partner 2 µM)
Summary of the method: as §1

[4] = compound: O=C(/C=C/c1ccccc1)NC(NC(=S)Nc1cccc2cccnc12)C(Cl)(Cl)Cl [Salubrinal] + CS(=O)(=O)CCNCc1ccc(-c2ccc3ncnc(Nc4ccc(OCc5cccc(F)c5)c(Cl)c4)c3c2)o1 [Lapatinib] (partner 2 µM)
Summary of the method: as §1

Row | Cell Line | relative viability ([1]; first compound 0.08 µM) | relative viability ([1]; first compound 0.253 µM) | relative viability ([1]; first compound 0.8 µM) | relative viability ([1]; first compound 2.53 µM) | relative viability ([1]; first compound 8 µM) | relative viability ([2]; first compound 0.04 µM) | relative viability ([2]; first compound 0.1265 µM) | relative viability ([2]; first compound 0.4 µM) | relative viability ([2]; first compound 1.265 µM) | relative viability ([2]; first compound 4 µM) | relative viability ([3]; first compound 0.04 µM) | relative viability ([3]; first compound 0.1265 µM) | relative viability ([3]; first compound 0.4 µM) | relative viability ([3]; first compound 1.265 µM) | relative viability ([3]; first compound 4 µM) | relative viability ([4]; first compound 0.08 µM) | relative viability ([4]; first compound 0.253 µM) | relative viability ([4]; first compound 0.8 µM) | relative viability ([4]; first compound 2.53 µM) | relative viability ([4]; first compound 8 µM)
1 | NCI-H2009 | 1.16 | 1.1 | 1.19 | 1.16 | 1.07 | 0.7 | 0.736 | 0.72 | 0.709 | 0.617 | 0.364 | 0.394 | 0.436 | 0.395 | 0.368 | 0.997 | 1.02 | 0.914 | 0.872 | 0.793
2 | NCI-H2023 | 0.679 | 0.586 | 0.688 | 0.587 | 0.488 | 0.682 | 0.689 | 0.568 | 0.682 | 0.638 | 0.225 | 0.227 | 0.241 | 0.256 | 0.2 | 0.747 | 0.936 | 1.04 | 0.814 | 0.606
3 | NCI-H2085 | 1.09 | 0.879 | 0.923 | 0.936 | 0.981 | 0.816 | 0.784 | 0.77 | 0.857 | 0.808 | 0.56 | 0.556 | 0.522 | 0.534 | 0.524 | 0.684 | 0.793 | 0.898 | 0.854 | 0.737
4 | NCI-H2087 | 1.14 | 0.861 | 1.05 | 1.33 | 1.09 | 0.435 | 0.657 | 0.611 | 0.884 | 0.675 | 0.308 | 0.362 | 0.249 | 0.285 | 0.299 | 1.04 | 1.06 | 1.16 | 0.93 | 1.1
5 | NCI-H2126 | 0.808 | 0.767 | 0.812 | 0.727 | 0.725 | 0.931 | 0.821 | 0.788 | 0.835 | 0.755 | 0.6 | 0.571 | 0.62 | 0.599 | 0.563 | 0.704 | 0.701 | 0.801 | 0.82 | 0.707
6 | NCI-H2170 | 0.883 | 0.703 | 0.859 | 0.811 | 0.706 | 1.01 | 1.01 | 0.786 | 0.702 | 0.833 | 0.473 | 0.442 | 0.433 | 0.448 | 0.461 | 0.275 | 0.289 | 0.248 | 0.271 | 0.263
7 | NCI-H2347 | 1.11 | 0.928 | 1.25 | 1.06 | 1.08 | 0.577 | 0.614 | 0.526 | 0.672 | 0.729 | 0.605 | 0.664 | 0.603 | 0.645 | 0.585 | 0.736 | 0.903 | 0.967 | 0.923 | 0.891
8 | NCI-H2405 | 0.8 | 0.845 | 0.711 | 0.79 | 0.831 | 1.2 | 0.943 | 0.946 | 1.01 | 0.93 | 0.706 | 0.713 | 0.747 | 0.728 | 0.741 | 1.01 | 1.03 | 1.13 | 1.07 | 1.09
